Consider eight compounds from US9949970B2, “Synthesis of new benzothiazole derivatives as potential anti-tubercular agents” (priority 2010, dated 2018).

The assay concerns M. tuberculosis isolates and drug resistance strains. Type of assay: cell-based, Mycobacterium tuberculosis.

For the compound `O=[N+]([O-])c1ccc(C=NNc2nc3ccc(OC(F)(F)F)cc3s2)s1` [Compound 3j, 5-nitro-2-thiophenecarbaldehyde 2-(6-trifluoromethoxy-1,3-benzothiazole-2-yl)hydrazone], the “In vitro activity (result in words)” value is listed as “good in vitro activity”.
The value for `O=C(NNc1nc2ccc(OC(F)(F)F)cc2s1)c1ccc([N+](=O)[O-])o1` [Compound 4e, N′2-(6-trifluoromethoxy-1,3-benzothiazol-2-yl)-5-nitro-2-furanecarbohydrazide] was “good in vitro activity”; that for `O=C(Nc1nc2ccc(NC(=O)c3ccc([N+](=O)[O-])o3)cc2s1)c1ccc(F)cc1` [Compound 6f, N2-{2-[(4-fluorobenzoyl)amino]-1,3-benzothiazol-6-yl}-5-nitrofuramide] was “good in vitro activity”; that for `O=C(Nc1nc2ccc(NC(=O)c3ccc([N+](=O)[O-])o3)cc2s1)c1ccc(Cl)cc1` [Compound 6g, N2-{2-[(4-chlorobenzoyl)amino]-1,3-benzothiazol-6-yl}-5-nitrofuramide] was “good in vitro activity”.
The same measure for `O=C(Nc1ccc2nc(NC(=O)c3ccc(F)cc3F)sc2c1)c1ccc([N+](=O)[O-])o1` [Compound 6i, N2-{2-[(2,4-difluorobenzoyl)amino]-1,3-benzothiazol-6-yl}-5-nitrofuramide]: “good in vitro activity”.
The same measure for `O=C(Nc1nc2ccc(NC(=O)c3ccc([N+](=O)[O-])o3)cc2s1)c1cnccn1` [Compound 6p, N2-(6-{[(5-nitro-2-furyl)carbonyl]amino}-1,3-benzothiazol-2-yl)-2-pyrazinecarboxamide]: “good in vitro activity”; for `O=C(Nc1ccc2nc(NC(=O)c3ccc([N+](=O)[O-])o3)sc2c1)c1ccc([N+](=O)[O-])o1` [Compound 8a, N2-(2-{[(5-nitro-2-furyl)carbonyl]amino}-1,3-benzothiazol-6-yl}-5-nitro-2-furamide]: “good in vitro activity”.
With “N2-(2-{[(E)-3-(4-chlorophenyl)-2-propenoyl]amino}-1,3-benzothiazol-6-yl)-5-nitro-2-furamide [Compound 6w]”, the “In vitro activity (result in words)” value is reported as “good in vitro activity”.
